# Data as given in US6046235A, “Sulfur-containing amino acid derivatives” (Santen Pharmaceutical Co., Ltd., priority 1996, dated 2000).
# Target: T1, LTA4 hydrolase (Cavia porcellus, UniProt P19602)
# T1 construct: Lungs were excised from a Hartley guinea pig; from tissue; host or cells: Hartley guinea pig lung, 100,000×g supernatant, 40-70% ammonium sulfate fraction, dialyzed
# T1 sequence (P19602 1-611): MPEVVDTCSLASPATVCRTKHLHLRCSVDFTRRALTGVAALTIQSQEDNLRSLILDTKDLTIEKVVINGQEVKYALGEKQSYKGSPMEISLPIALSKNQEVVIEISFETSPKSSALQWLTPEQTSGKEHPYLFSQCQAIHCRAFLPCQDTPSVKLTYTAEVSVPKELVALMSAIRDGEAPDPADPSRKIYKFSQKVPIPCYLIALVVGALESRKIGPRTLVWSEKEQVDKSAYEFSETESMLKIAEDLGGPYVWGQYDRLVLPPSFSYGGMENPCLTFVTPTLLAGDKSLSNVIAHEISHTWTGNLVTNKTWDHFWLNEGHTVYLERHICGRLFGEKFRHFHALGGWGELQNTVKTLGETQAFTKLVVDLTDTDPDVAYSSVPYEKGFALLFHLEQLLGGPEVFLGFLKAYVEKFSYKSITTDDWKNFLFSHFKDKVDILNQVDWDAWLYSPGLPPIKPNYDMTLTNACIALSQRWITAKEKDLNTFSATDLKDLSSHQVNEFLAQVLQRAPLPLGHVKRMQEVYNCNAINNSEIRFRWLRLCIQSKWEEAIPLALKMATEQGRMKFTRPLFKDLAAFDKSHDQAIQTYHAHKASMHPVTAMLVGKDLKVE
# Test: LTA4 hydrolase inhibition (LTB4 formed from LTA4, guinea pig lung enzyme preparation)
# Format: biochemical
# Details: Comparison Test; even at a concentration of 10^-5 M
# Protocol: Effects of the present compounds on LTA4 hydrolase were examined according to the method described in the literature.
# Lungs were excised from a Hartley guinea pig (body weight: 330 g). The lungs were homogenized in phosphoric acid buffer (50 mM, pH 7.4, containing 1 mM ethylenediaminetetraacetic acid (EDTA) and 1 mM dithiothreitol (DTT) having weight three times that of the lungs under ice-cooling. The homogenate was centrifuged at low speed (800×g) for 20 minutes, centrifuged at high speed (10,000×g) for 20 minutes and ultracentrifuged (100,000×g) for 60 minutes to give a supernatant. The supernatant was brought to 40% saturation by adding a saturated aqueous ammonium sulfate solution (pH 7.0-7.2, containing 1 mM DTT) dropwise under ice-cooling and centrifuged at high speed (10,000×g) for 20 minutes. The resulting supernatant was brought to 70% saturation by adding a saturated aqueous ammonium sulfate solution (pH 7.0-7.2, containing 1 mM DTT) dropwise and centrifuged at high speed (10,000×g) for 20 minutes. The obtained pellet was dissolved in 2 ml of Tris-acetic acid buffer (20 mM, pH 7.8, containing 1 mM DTT) and dialyzed in 2 liters of the solution to give the enzyme preparation.
# LTA4 used, which is the substrate, was prepared by hydrolyzing LTA4 methyl ester and dissolved in ethanol.
# In order to examine effects of the present compounds on the enzyme preparation, reactions were performed under the following condition using mixed solutions consisting of the composition shown in Table 1.
# HEPES buffer 50 mM, pH 7.8
# Enzyme preparation 0.4-0.6 mg protein
# Aqueous DTT solution 3 mM
# The above-mentioned solution (50 μl ) was incubated at 37° C. for one minute. To the reaction mixture was added 100 μl of a mixed liquid of acetonitrile-ethanol-acetic acid (150:50:3, volume ratio) under ice-cooling. The mixture was allowed to stand at -20° C. for 30 minutes and centrifuged at high speed (10,000×g) for five minutes to give a supernatant. An amount of LTB4 produced in the supernatant was measured by high-speed liquid chromatography.
# The degree of the inhibitory effect of each test compound on LTA4 hydrolase is expressed by the inhibition rate calculated by the following equation. [formula]
# A: amount of LTB4 formed in the absence of the test compound
# B: amount of LTB4 formed in the presence of the test compound
# Experiments were carried out under the same conditions as those of the above-mentioned "Pharmacological Test".
row,inhibitory effect on LTA4 hydrolase,Compound
1,little inhibitory effect,"CC(CS)C(=O)N[C@@H](CSCc1ccccc1)C(=O)O (some centres unmarked) [known compound [I], reference compound]"

# Same assay, conditions: Comparison Test; ratio to compound No. 2-12
row,inhibitory effect on LTA4 hydrolase relative to that of the present compound (No. 2-12),Compound
1,about 1/100,"CC(C)(C)c1ccc(CSC[C@H](NC(=O)C(CS)Cc2ccccc2)C(=O)O)cc1 (some centres unmarked) [known compound [II], reference compound]"

# Same assay, conditions: Comparison Test; ratio to the present compounds
row,inhibitory effect on LTA4 hydrolase relative to those of the present compounds,Compound
1,one tenth,"CC(C)(C)c1ccc(CSC[C@H](NC(=O)C(CS)Cc2ccccc2)C(=O)O)cc1 (some centres unmarked) [known compound [II], reference compound]"

# Same assay, conditions: Comparison Test; same conditions as Pharmacological Test; read-out: IC50
row,IC50,Compound
1,4.5 µM,"CC(C)(C)c1ccc(CSC[C@H](NC(=O)C(CS)Cc2ccccc2)C(=O)O)cc1 (some centres unmarked) [known compound [II], reference compound]"

# Same assay, conditions: Table 2; guinea pig lung enzyme preparation; LTA4 63 μM; 37° C., one minute; pH 7.8; read-out: IC50 (concentration required to inhibit LTA4 hydrolase by 50%)
row,Compound,IC50
1,"C[C@H](CSC(=O)c1ccccc1)C(=O)N[C@@H](CSCc1ccc(S(C)(=O)=O)cc1)C(=O)O [Compound No. 1-26, (2R)-2-[(2S)-3-(Benzoylthio)-2-methylpropionylamino]-3-(4-methylsulfonylbenzylthio)propionic acid]",0.2 µM
2,"CC(C)c1ccc(C(C)(C)SC[C@H](NC(=O)[C@H](C)CS)C(=O)O)cc1 [Compound No. 2-32, (2R)-2-[(2S)-3-Mercapto-2-methylpropionylamino]-3-[(α,α-dimethyl-4-isopropyl)benzylthio]propionic acid]",0.025 µM
3,"CSc1ccc(CSC[C@H](NC(=O)[C@H](C)CSC(=O)c2ccccc2)C(=O)O)cc1 [Compound No. 1-16, (2R)-2-[(2S)-3-(Benzoylthio)-2-methylpropionylamino]-3-(4-methylthiobenzylthio)propionic acid]",0.11 µM
4,"CCCc1ccc(CSC[C@H](NC(=O)[C@H](C)CSC(=O)c2ccccc2)C(=O)O)cc1 [Compound No. 1-9, (2R)-2-[(2S)-3-(Benzoylthio)-2-methylpropionylamino]-3-(4-propylbenzylthio)propionic acid]",0.17 µM
5,"C[C@H](CSC(=O)c1ccccc1)C(=O)N[C@@H](CSCc1ccc(I)cc1)C(=O)O [Compound No. 1-25, (2R)-2-[(2S)-3-(Benzoylthio)-2-methylpropionylamino]-3-(4-iodobenzylthio)propionic acid]",0.051 µM
6,"CCC(SC[C@H](NC(=O)[C@H](C)CS)C(=O)O)c1ccc(C(C)C)cc1 (stereo partly drawn) [Compound No. 2-33, (2R)-3-[(α-Ethyl-4-isopropyl)benzylthio]-2-[(2S)-3-mercapto-2-methylpropionylamino]propionic acid]",0.067 µM
7,"C[C@H](CSC(=O)c1ccccc1)C(=O)N[C@@H](CSCc1ccc(Cl)cc1)C(=O)O [Compound No. 1-23, (2R)-2-[(2S)-3-(Benzoylthio)-2-methylpropionylamino]-3-(4-chlorobenzylthio)propionic acid]",0.3 µM
8,"C[C@H](CSC(=O)c1ccccc1)C(=O)N[C@@H](CSCc1ccc([N+](=O)[O-])cc1)C(=O)O [Compound No. 1-28, (2R)-2-[(2S)-3-(Benzoylthio)-2-methylpropionylamino]-3-(4-nitrobenzylthio)propionic acid]",0.29 µM
9,"CC(SC[C@H](NC(=O)[C@H](C)CS)C(=O)O)c1ccc(C(C)(C)C)cc1 (stereo partly drawn) [Compound No. 2-34, (2R)-3-[(4-tert-Butyl-α-methyl)benzylthio]-2-[(2R)-3-mercapto-2-methylpropionylamino]propionic acid]",0.068 µM
10,"CC(C)c1ccc(CSC[C@H](NC(=O)[C@H](C)CSC(=O)c2ccccc2)C(=O)O)cc1 [Compound No. 1-10, (2R)-2-[(2S)-3-(Benzoylthio)-2-methylpropionylamino]-3-(4-isopropylbenzylthio)propionic acid]",0.12 µM
11,"C[C@H](CSC(=O)c1ccccc1)C(=O)N[C@@H](CSCc1ccc(OC(F)(F)F)cc1)C(=O)O [Compound No. 1-18, (2R)-2-[(2S)-3-(Benzoylthio)-2-methylpropionylamino]-3-(4-trifluoromethoxybenzylthio)propionic acid]",0.1 µM
12,"C[C@H](CSC(=O)c1ccccc1)C(=O)N[C@@H](CSCc1ccc(Br)cc1)C(=O)O [Compound No. 1-24, (2R)-2-[(2S)-3-(Benzoylthio)-2-methylpropionylamino]-3-(4-bromobenzylthio)propionic acid]",0.31 µM
13,"CC(C)c1ccc(C(C)SC[C@H](NC(=O)[C@H](C)CS)C(=O)O)cc1 (stereo partly drawn) [Compound No. 2-30, (2R)-2-[(2S)-3-Mercapto-2-methylpropionylamino]-3-[(α-methyl-4-isopropyl)benzylthio]propionic acid]",0.055 µM
14,"C[C@H](CSC(=O)c1ccccc1)C(=O)N[C@@H](CSCc1ccc(C(F)(F)F)cc1)C(=O)O [Compound No. 1-13, (2R)-2-[(2S)-3-(Benzoylthio)-2-methylpropionylamino]-3-(4-trifluoromethylbenzylthio)propionic acid]",0.1 µM
15,"CCc1ccc(CSC[C@H](NC(=O)[C@H](C)CSC(=O)c2ccccc2)C(=O)O)cc1 [Compound No. 1-8, (2R)-2-[(2S)-3-(Benzoylthio)-2-methylpropionylamino]-3-(4-ethylbenzylthio)propionic acid]",0.12 µM

# Results, then the compound that gave them:
row,IC50,Compound
1,0.2 µM,"CC(C)c1ccc(CSC[C@H](NC(=O)[C@H](C)CS)C(=O)O)cc1 [Compound No. 2-10, (2R)-3-(4-Isopropylbenzylthio)-2-[(2S)-3-mercapto-2-methylpropionylamino]propionic acid]"
2,0.055 µM,"C[C@H](CS)C(=O)N[C@@H](CSC(C)(C)c1ccc(C2CCCCC2)cc1)C(=O)O [Compound No. 2-39, (2R)-3-[(4-Cyclohexyl-α,α-dimethyl)benzylthio]-2-[(2S)-3-mercapto-2-methylpropionylamino]propionic acid]"
3,0.024 µM,"C[C@H](CS)C(=O)N[C@@H](CSCc1ccc(C(C)(C)C)cc1)C(=O)O [Compound No. 2-11, (2R)-3-(4-tert-Butylbenzylthio)-2-[(2S)-3-mercapto-2-methylpropionylamino]propionic acid]"
4,0.16 µM,"C[C@H](CS)C(=O)N[C@@H](CSCc1ccc(S(C)(=O)=O)cc1)C(=O)O [Compound No. 2-26, (2R)-2-[(2S)-3-Mercapto-2-methylpropionylamino]-3-(4-methylsulfonylbenzylthio)propionic acid]"
5,0.015 µM,"C[C@H](CS)C(=O)N[C@@H](CSCc1ccc(I)cc1)C(=O)O [Compound No. 2-25, (2R)-3-(4-Iodobenzylthio)-2-[(2S)-3-mercapto-2-methylpropionylamino]propionic acid]"
6,0.072 µM,"CCCc1ccc(CSC[C@H](NC(=O)[C@H](C)CS)C(=O)O)cc1 [Compound No. 2-9, (2R)-2-[(2S)-3-Mercapto-2-methylpropionylamino]-3-(4-propylbenzylthio)propionic acid]"
7,0.079 µM,"C[C@H](CS)C(=O)N[C@@H](CSCc1ccc(C2CCCCC2)cc1)C(=O)O [Compound No. 2-35, (2R)-3-(4-Cyclohexylbenzylthio)-2-[(2S)-3-mercapto-2-methylpropionylamino]propionic acid]"
8,0.28 µM,"CCc1ccc(CSC[C@H](NC(=O)[C@H](C)CS)C(=O)O)cc1 [Compound No. 2-8, (2R)-3-(4-Ethylbenzylthio)-2-[(2S)-3-mercapto-2-methylpropionylamino]propionic acid]"
9,0.14 µM,"C[C@H](CS)C(=O)N[C@@H](CSCc1ccc(C(F)(F)F)cc1)C(=O)O [Compound No. 2-13, (2R)-2-[(2S)-3-Mercapto-2-methylpropionylamino]-3-(4-trifluoromethylbenzylthio)propionic acid]"
10,0.058 µM,"CC(CS)C(=O)N[C@@H](CSCc1ccc(C(C)(C)C)cc1)C(=O)O (stereo partly drawn) [Compound No. 2-12, (2R)-3-(4-tert-Butylbenzylthio)-2-[(2RS)-3-mercapto-2-5 methylpropionylamino]propionic acid]"
